Assays:
[1] = target: T1, Sigma intracellular receptor 2 (Rattus norvegicus, UniProt Q5U3Y7); assay: Displacement of [3H]-di-o-tolylguanidine from sigma2 receptor in rat liver membranes incubated for 120 mins by scintillation counting method
T1 sequence (Q5U3Y7 whole entry): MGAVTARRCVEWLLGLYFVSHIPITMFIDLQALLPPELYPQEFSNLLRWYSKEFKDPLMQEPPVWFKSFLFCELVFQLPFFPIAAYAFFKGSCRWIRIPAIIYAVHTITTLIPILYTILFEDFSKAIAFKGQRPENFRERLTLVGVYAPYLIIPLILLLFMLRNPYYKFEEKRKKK

[2] = target: Sigma non-opioid intracellular receptor 1 (Cavia porcellus, UniProt Q60492); assay: Displacement of [3H]-(+)-pentazocine from sigma1 receptor in guinea pig brain cortex membranes incubated for 120 mins by scintillation counting method
Sigma non-opioid intracellular receptor 1, sequence (Q60492 whole entry): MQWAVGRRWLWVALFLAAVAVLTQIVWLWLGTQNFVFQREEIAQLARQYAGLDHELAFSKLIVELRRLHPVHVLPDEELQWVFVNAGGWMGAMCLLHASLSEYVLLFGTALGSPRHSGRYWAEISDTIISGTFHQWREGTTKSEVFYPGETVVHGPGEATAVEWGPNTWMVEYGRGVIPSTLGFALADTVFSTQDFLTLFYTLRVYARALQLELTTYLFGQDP

[3] = target: Delta-type opioid receptor (Rattus norvegicus, UniProt P33533); assay: Displacement of [3H]DPDPE from DOR in rat brain membranes incubated for 120 mins by scintillation counting method
Delta-type opioid receptor, sequence (P33533 whole entry): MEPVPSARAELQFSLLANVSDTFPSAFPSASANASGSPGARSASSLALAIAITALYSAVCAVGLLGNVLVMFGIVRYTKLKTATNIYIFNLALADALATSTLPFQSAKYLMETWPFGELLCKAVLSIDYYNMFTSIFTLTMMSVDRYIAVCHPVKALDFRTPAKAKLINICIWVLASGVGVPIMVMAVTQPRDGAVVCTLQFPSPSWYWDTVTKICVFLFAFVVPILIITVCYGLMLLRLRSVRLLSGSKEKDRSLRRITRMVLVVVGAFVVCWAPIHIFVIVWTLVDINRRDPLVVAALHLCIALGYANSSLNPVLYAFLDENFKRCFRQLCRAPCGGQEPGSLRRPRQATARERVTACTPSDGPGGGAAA

[4] = target: Kappa-type opioid receptor (Cavia porcellus, UniProt P41144); assay: Displacement of [3H]U-69,593 from KOR in guinea pig brain membranes incubated for 120 mins by scintillation counting method
Kappa-type opioid receptor, sequence (P41144 whole entry): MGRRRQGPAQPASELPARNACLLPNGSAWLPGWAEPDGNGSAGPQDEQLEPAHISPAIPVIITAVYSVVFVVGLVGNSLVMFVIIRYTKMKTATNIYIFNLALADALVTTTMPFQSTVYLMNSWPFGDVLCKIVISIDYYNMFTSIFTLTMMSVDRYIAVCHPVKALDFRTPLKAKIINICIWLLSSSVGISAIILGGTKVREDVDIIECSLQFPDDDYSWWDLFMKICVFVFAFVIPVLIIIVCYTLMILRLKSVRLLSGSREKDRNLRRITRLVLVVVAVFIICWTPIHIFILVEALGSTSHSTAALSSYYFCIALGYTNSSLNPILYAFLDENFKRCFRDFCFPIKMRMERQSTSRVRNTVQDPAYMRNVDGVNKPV

Mu-type opioid receptor [5] = target: Mu-type opioid receptor (Homo sapiens, UniProt P35372); assay: Agonist activity at human MOR expressed in CHOK1 cells assessed as reduction in forskolin-induced intracellular cAMP increase after 45 mins by HTRF analysis
Mu-type opioid receptor (Homo sapiens, UniProt P35372), sequence (P35372 whole entry): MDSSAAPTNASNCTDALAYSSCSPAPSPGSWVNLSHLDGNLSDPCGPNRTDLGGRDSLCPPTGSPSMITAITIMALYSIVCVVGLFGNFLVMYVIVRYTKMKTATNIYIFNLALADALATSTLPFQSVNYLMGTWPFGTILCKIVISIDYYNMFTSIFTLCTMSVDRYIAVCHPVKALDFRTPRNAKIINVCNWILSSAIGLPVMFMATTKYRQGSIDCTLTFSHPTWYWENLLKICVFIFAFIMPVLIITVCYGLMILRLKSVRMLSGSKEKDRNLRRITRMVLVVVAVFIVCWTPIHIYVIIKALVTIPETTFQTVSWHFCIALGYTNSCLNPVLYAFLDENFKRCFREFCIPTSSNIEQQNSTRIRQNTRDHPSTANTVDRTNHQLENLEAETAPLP

Mu-type opioid receptor [6] = target: Mu-type opioid receptor (Cavia porcellus, UniProt P97266); assay: Displacement of [3H]DAMGO from MOR in guinea pig brain membranes incubated for 120 mins by scintillation counting method
Mu-type opioid receptor (Cavia porcellus, UniProt P97266), sequence (P97266 whole entry): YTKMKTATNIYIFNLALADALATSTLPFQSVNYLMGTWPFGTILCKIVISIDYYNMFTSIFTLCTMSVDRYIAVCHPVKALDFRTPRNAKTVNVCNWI

Row | Ki [1] | Ki [2] | Structure (SMILES) | also measured
1 | 302 nM | > 1000 nM | Cc1ccc(CNC2CCC3(CC2)O[C@H](CCF)Cc2ccccc23)c(C)c1 (stereo partly specified) | 
2 |  | > 1000 nM | CCOC(=O)C[C@@H]1Cc2ccccc2C2(CCC(NCc3ccc(C)cc3C)CC2)O1 (stereo partly specified) | 
3 |  | 12 nM | CCOC(=O)C[C@H]1Cc2ccccc2C2(CCC(N3CCN(C4CCCCC4)CC3)CC2)O1 (stereo partly specified) | Ki [3]: > 1000 nM; Ki [4]: > 1000 nM; EC50 (Mu-type opioid receptor [5]): > 10000 nM
4 | > 1000 nM | > 1000 nM | COc1cc2c(cc1OC)CN(C1CCC3(CC1)O[C@H](CCO)Cc1ccccc13)CC2 (stereo partly specified) | 
5 |  | 12 nM | FCC[C@@H]1Cc2ccccc2C2(CCC(N3CCN(C4CCCCC4)CC3)CC2)O1 (stereo partly specified) | Ki [3]: > 1000 nM; Ki [4]: > 1000 nM; Ki (Mu-type opioid receptor [6]): > 1000 nM
6 | 505 nM | > 1000 nM | COc1cc2c(cc1OC)CN(C1CCC3(CC1)O[C@@H](CCF)Cc1ccccc13)CC2 (stereo partly specified) | 
7 |  | > 1000 nM | CCOC(=O)C[C@H]1Cc2ccccc2C2(CCC(N3CCc4cc(OC)c(OC)cc4C3)CC2)O1 (stereo partly specified) | 
8 | 505 nM |  | OCC[C@H]1Cc2ccccc2C2(CCC(N3CCN(C4CCCCC4)CC3)CC2)O1 (stereo partly specified) | 
9 |  |  | O[C@H]1Cc2ccccc2C2(CCC(N3CCN(C4CCCCC4)CC3)CC2)O1 (stereo partly specified) | Ki [3]: > 1000 nM; EC50 (Mu-type opioid receptor [5]): > 10000 nM; Ki (Mu-type opioid receptor [6]): > 1000 nM
10 |  |  | FCC[C@H]1Cc2ccccc2C2(CCC(N3CCN(C4CCCCC4)CC3)CC2)O1 (stereo partly specified) | Ki [4]: > 1000 nM
11 | > 1000 nM |  | CO[C@@H]1Cc2ccccc2C2(CCC(NCc3ccccc3)CC2)O1 (stereo partly specified) | 
12 | > 1000 nM |  | CO[C@H]1Cc2ccccc2C2(CCC(NCc3ccccc3)CC2)O1 (stereo partly specified) | 
13 |  | > 1000 nM | CO[C@H]1Cc2ccccc2C2(CCC(NCc3ccc(C)cc3C)CC2)O1 (stereo partly specified) | 
14 |  | > 1000 nM | COc1cc2c(cc1OC)CN(C1CCC3(CC1)O[C@@H](OC)Cc1ccccc13)CC2 (stereo partly specified) | 
15 | 302 nM |  | O[C@@H]1Cc2ccccc2C2(CCC(N3CCN(C4CCCCC4)CC3)CC2)O1 (stereo partly specified) | 
16 | > 1000 nM | > 1000 nM | COc1cc2c(cc1OC)CN(C1CCC3(CC1)O[C@@H](O)Cc1ccccc13)CC2 (stereo partly specified) | 
17 |  | 12 nM | CCOC(=O)C[C@@H]1Cc2ccccc2C2(CCC(N3CCN(C4CCCCC4)CC3)CC2)O1 (stereo partly specified) | 
18 | > 1000 nM | > 1000 nM | CCOC(=O)C[C@@H]1Cc2ccccc2C2(CCC(N3CCc4cc(OC)c(OC)cc4C3)CC2)O1 (stereo partly specified) | 
19 |  | > 1000 nM | Cc1ccc(CNC2CCC3(CC2)O[C@H](CCO)Cc2ccccc23)c(C)c1 (stereo partly specified) | 
20 | > 1000 nM | > 1000 nM | COc1cc2c(cc1OC)CN(C1CCC3(CC1)O[C@@H](CCO)Cc1ccccc13)CC2 (stereo partly specified) | 
21 | > 1000 nM |  | Cc1ccc(CNC2CCC3(CC2)O[C@@H](CCF)Cc2ccccc23)c(C)c1 (stereo partly specified) | 
22 | > 1000 nM |  | COc1cc2c(cc1OC)CN(C1CCC3(CC1)O[C@H](CCF)Cc1ccccc13)CC2 (stereo partly specified) | 
23 | > 1000 nM | > 1000 nM | CO[C@@H]1Cc2ccccc2C2(CCC(NCCCc3cn(-c4ccc(F)cc4)c4ccccc34)CC2)O1 (stereo partly specified) | 
24 | > 1000 nM |  | CO[C@H]1Cc2ccccc2C2(CCC(NCCCc3cn(-c4ccc(F)cc4)c4ccccc34)CC2)O1 (stereo partly specified) | 
25 |  | > 1000 nM | CO[C@@H]1Cc2ccccc2C2(CCC(NC3CCc4ccccc4CC3)CC2)O1 (stereo partly specified) | 

Row | Structure (SMILES) | Ki [1] | Ki [2] | also measured
26 | Cc1ccc(CNC2CCC3(CC2)O[C@@H](O)Cc2ccccc23)c(C)c1 (stereo partly specified) |  | > 1000 nM | 
